Experimental data published in patent US20230148214A1, “INDAZOLES AND AZAINDAZOLES AS LRRK2 INHIBITORS” (ESCAPE Bio, Inc., priority 2020, published 2023).

Key:
LRRK2 G2019S = target: T1, LRRK2 G2019S (Homo sapiens, UniProt Q5S007, G2019S); test: LRRK2 Kinase Activity Assay (LanthaScreen TR-FRET), G2019S; assay type: biochemical; details: recombinant G2019S-LRRK2, 25 μM ATP, 400 nM LRRKtide, 60 min; class symbols
T1 construct: purchased Life Technologies PV4881
Description: (§1) LRRK2 kinase activity was measured using a LanthaScreen™ Kinase Activity Assay from ThermoFisher Scientific. Recombinant wild type or G2019S-LRRK2 protein (Life Technologies, PR8604B or PV4881, respectively), was incubated with a fluorescein-labeled peptide substrate called LRRKtide that is based upon ezrin/radixin/moesin (ERM) (Life Technologies, PV4901) in the presence of ATP and serially diluted compound. […] Compound-dependent inhibition of the TR-FRET signal was used to generate a concentration-response curve for IC50 determination.
(§2) After 60 min incubation at room temperature, the reaction was stopped by addition of 10 μL of 2×stop solution containing a final concentration of 2 nM anti-pERM antibody and 10 mM EDTA.

LRRK2 WT = target: T2, LRRK2 WT (Homo sapiens, UniProt Q5S007); test: LRRK2 Kinase Activity Assay (LanthaScreen TR-FRET), wild type; assay type: biochemical; details: recombinant wild type LRRK2, 25 μM ATP, 400 nM LRRKtide, 60 min; class symbols
T2 construct: purchased Life Technologies PR8604B
T2 sequence (Q5S007 whole entry): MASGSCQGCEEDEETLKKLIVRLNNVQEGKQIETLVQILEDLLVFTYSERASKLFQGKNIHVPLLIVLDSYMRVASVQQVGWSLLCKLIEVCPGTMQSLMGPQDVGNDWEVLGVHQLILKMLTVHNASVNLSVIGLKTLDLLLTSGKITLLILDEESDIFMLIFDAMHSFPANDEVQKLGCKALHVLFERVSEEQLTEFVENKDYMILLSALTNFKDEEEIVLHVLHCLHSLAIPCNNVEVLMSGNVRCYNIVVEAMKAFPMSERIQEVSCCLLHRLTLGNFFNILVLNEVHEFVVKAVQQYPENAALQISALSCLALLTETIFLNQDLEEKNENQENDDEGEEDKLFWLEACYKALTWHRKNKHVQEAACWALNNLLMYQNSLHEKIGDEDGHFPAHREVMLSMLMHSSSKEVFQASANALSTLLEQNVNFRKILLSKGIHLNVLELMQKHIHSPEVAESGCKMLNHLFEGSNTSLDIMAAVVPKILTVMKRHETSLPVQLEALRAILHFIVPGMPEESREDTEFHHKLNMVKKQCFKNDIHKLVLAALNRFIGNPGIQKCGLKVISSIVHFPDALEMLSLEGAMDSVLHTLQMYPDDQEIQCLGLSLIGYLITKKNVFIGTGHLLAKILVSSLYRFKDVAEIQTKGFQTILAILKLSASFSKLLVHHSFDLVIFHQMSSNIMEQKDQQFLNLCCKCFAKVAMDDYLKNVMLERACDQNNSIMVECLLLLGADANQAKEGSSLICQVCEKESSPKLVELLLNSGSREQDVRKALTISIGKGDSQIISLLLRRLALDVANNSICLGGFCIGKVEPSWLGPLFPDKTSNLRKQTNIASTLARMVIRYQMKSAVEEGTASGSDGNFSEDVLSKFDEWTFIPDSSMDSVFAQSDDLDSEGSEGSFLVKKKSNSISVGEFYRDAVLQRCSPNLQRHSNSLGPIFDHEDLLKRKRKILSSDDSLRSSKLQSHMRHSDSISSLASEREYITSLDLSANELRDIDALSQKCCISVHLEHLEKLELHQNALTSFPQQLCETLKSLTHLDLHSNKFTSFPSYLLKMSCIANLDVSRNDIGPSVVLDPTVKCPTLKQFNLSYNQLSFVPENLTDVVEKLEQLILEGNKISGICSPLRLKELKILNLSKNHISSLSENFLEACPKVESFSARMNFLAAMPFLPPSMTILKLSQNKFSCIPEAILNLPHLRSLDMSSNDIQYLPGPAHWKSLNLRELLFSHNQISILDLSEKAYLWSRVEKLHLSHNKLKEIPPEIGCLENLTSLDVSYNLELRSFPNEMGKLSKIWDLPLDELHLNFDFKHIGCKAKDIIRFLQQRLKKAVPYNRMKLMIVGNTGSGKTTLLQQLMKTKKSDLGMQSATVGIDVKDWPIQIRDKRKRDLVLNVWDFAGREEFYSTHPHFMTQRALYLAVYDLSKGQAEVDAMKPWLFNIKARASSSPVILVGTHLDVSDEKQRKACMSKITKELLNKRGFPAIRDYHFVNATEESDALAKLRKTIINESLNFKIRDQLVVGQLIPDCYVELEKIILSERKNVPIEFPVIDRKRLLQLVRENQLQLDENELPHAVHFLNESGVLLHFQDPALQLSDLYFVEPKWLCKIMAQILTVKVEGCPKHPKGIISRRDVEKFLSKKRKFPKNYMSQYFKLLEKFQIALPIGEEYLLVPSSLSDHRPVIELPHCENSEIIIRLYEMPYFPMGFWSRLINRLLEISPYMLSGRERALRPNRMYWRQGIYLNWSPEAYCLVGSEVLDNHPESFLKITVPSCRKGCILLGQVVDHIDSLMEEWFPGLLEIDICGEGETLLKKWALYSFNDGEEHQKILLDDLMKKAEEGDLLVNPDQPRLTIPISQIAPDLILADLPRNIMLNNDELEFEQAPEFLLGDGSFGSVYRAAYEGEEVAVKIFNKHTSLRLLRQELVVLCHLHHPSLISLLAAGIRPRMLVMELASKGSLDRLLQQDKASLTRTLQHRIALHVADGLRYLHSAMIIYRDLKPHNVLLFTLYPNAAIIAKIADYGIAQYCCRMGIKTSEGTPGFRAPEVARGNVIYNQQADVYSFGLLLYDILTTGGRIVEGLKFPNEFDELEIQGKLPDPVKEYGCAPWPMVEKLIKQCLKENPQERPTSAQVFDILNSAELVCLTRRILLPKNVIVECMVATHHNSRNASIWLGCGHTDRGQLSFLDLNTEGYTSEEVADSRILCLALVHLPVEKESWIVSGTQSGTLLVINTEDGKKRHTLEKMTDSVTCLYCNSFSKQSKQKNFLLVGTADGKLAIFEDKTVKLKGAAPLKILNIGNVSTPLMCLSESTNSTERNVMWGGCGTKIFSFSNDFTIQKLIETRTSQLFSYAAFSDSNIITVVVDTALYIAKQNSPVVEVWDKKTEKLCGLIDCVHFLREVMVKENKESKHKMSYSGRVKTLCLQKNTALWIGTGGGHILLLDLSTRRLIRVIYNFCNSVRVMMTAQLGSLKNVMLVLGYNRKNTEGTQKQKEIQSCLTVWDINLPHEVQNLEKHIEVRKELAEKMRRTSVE
Description: as §1, §2

T1 sequence (Q5S007 whole entry G2019S): as the sequence (Q5S007 whole entry) above, with G2019S counted along it

SMILES	IC50 (LRRK2 G2019S) [nM]	IC50 (LRRK2 WT) [nM]
C[C@H]1CCc2cc(C#N)ccc2[C@H]1Oc1ccc2[nH]nc(-c3cnco3)c2c1 (single isomer, unassigned) [175, enantiomer 1, cis-6-Methyl-5-[[3-(1,3-oxazol-5-yl)-1H-indazol-5-yl]oxy]-5,6,7,8-tetrahydronaphthalene-2-carbonitrile]	< 100	100 to 1000
C[C@H]1CCc2cc(C#N)ccc2[C@H]1Oc1ccc2[nH]nc(-c3cnco3)c2c1 (single isomer, unassigned) [175, enantiomer 2, cis-6-Methyl-5-[[3-(1,3-oxazol-5-yl)-1H-indazol-5-yl]oxy]-5,6,7,8-tetrahydronaphthalene-2-carbonitrile]	< 100	100 to 1000
C[C@@H]1CCc2cc(C#N)ccc2[C@H]1Oc1ccc2[nH]nc(-c3cnco3)c2c1 (single isomer, unassigned) [176, enantiomer 1, trans-6-Methyl-5-[[3-(1,3-oxazol-5-yl)-1H-indazol-5-yl]oxy]-5,6,7,8-tetrahydronaphthalene-2-carbonitrile]	< 100	100 to 1000
C[C@@H]1CCc2cc(C#N)ccc2[C@H]1Oc1ccc2[nH]nc(-c3cnco3)c2c1 (single isomer, unassigned) [176, enantiomer 2, trans-6-Methyl-5-[[3-(1,3-oxazol-5-yl)-1H-indazol-5-yl]oxy]-5,6,7,8-tetrahydronaphthalene-2-carbonitrile]	< 100	< 100
N#Cc1cc2c(nc1Cl)[C@@H](Oc1ccc3[nH]nc(-c4cnco4)c3c1)CCC2 (single isomer, unassigned) [177, enantiomer 1, 2-Chloro-8-((3-(oxazol-5-yl)-1H-indazol-5-yl)oxy)-5,6,7,8-tetrahydroquinoline-3-carbonitrile]	< 100	< 100
N#Cc1cc2c(nc1Cl)[C@@H](Oc1ccc3[nH]nc(-c4cnoc4)c3c1)CCC2 (single isomer, unassigned) [178, enantiomer 1, 2-Chloro-8-[[3-(1,2-oxazol-4-yl)-1H-indazol-5-yl]oxy]-5,6,7,8-tetrahydroquinoline-3-carbonitrile]	< 100	< 100
COc1nc2c(cc1C#N)CCC[C@@H]2Oc1ccc2[nH]nc(-c3cnco3)c2c1 (single isomer, unassigned) [179, enantiomer 1, 2-Methoxy-8-[[3-(1,3-oxazol-5-yl)-1H-indazol-5-yl]oxy]-5,6,7,8-tetrahydroquinoline-3-carbonitrile]	< 100	< 100
COc1nc2c(cc1C#N)CCC[C@@H]2Oc1ccc2[nH]nc(-c3cnco3)c2c1 (single isomer, unassigned) [179, enantiomer 2, 2-Methoxy-8-[[3-(1,3-oxazol-5-yl)-1H-indazol-5-yl]oxy]-5,6,7,8-tetrahydroquinoline-3-carbonitrile]	100 to 1000	100 to 1000
N#Cc1cc2c(cc1F)[C@@H](Oc1ccc3[nH]nc(-c4cnco4)c3c1)CCC2 (single isomer, unassigned) [180, enantiomer 1, 3-Fluoro-5-[[3-(1,3-oxazol-5-yl)-1H-indazol-5-yl]oxy]-5,6,7,8-tetrahydronaphthalene-2-carbonitrile]	< 100	< 100
N#Cc1cc2c(nc1Cl)[C@@H](Oc1ccc3[nH]nc(C4CC4)c3c1)CCC2 (single isomer, unassigned) [181, enantiomer 1, 2-Chloro-8-[(3-cyclopropyl-1H-indazol-5-yl)oxy]-5,6,7,8-tetrahydroquinoline-3-carbonitrile]	< 100	< 100
N#Cc1ccc2c(c1)CC[C@@H]2Oc1ccc2[nH]nc(C3CC3)c2c1 (single isomer, unassigned) [Example 124, enantiomer 2, 1-((3-Cyclopropyl-1H-indazol-5-yl)oxy)-2,3-dihydro-1H-indene-5-carbonitrile]	100 to 1000	
N#Cc1cnc2c(c1)CCC[C@@H]2Oc1ccc2[nH]nc(C3CC3)c2c1 (single isomer, unassigned) [Example 136, enantiomer 2, 8-((3-Cyclopropyl-1H-indazol-5-yl)oxy)-5,6,7,8-tetrahydroquinoline-3-carbonitrile]	100 to 1000	
COc1c(C#N)cnc2c1CCC[C@@H]2Nc1ccc2[nH]nc(-c3cnco3)c2c1 (single isomer, unassigned) [Example 146, enantiomer 2, 4-Methoxy-8-((3-(oxazol-5-yl)-1H-indazol-5-yl)amino)-5,6,7,8-tetrahydroquinoline-3-carbonitrile]		< 100
N#Cc1ccc2c(c1F)CC(F)(F)[C@@H]2Nc1ccc2[nH]nc(-c3cnco3)c2c1 (single isomer, unassigned) [Example 151, enantiomer 2, 2,2,4-Trifluoro-1-((3-(oxazol-5-yl)-1H-indazol-5-yl)amino)-2,3-dihydro-1H-indene-5-carbonitrile]		< 100
N#Cc1ccc2c(c1)CCCC2Nc1ccc2[nH]nc(C(F)(F)F)c2c1 (single isomer, unassigned) [Example 153, enantiomer 2, 5-((3-(Trifluoromethyl)-1H-indazol-5-yl)amino)-5,6,7,8-tetrahydronaphthalene-2-carbonitrile]	1000 to 10000	
COc1c(C#N)cnc2c1CC[C@@H]2Nc1ccc2[nH]nc(-c3cnco3)c2c1 (single isomer, unassigned) [Example 154, enantiomer 1, 4-Methoxy-7-((3-(oxazol-5-yl)-1H-indazol-5-yl)amino)-6,7-dihydro-5H-cyclopenta[b]pyridine-3-carbonitrile]		100 to 1000
Cc1ncc(-c2n[nH]c3ccc(N[C@@H]4c5ccc(C#N)cc5CC4(F)F)cc23)o1 (single isomer, unassigned) [Example 155, enantiomer 2, 2,2-Difluoro-1-((3-(2-methyloxazol-5-yl)-1H-indazol-5-yl)amino)-2,3-dihydro-1H-indene-5-carbonitrile]		< 100
Cc1ncc(-c2n[nH]c3ccc(O[C@H]4CCc5c4ccc(C#N)c5F)cc23)o1 (single isomer, unassigned) [Example 156, enantiomer 2, 4-Fluoro-1-((3-(2-methyloxazol-5-yl)-1H-indazol-5-yl)oxy)-2,3-dihydro-1H-indene-5-carbonitrile]		< 100
Cc1cc(-c2n[nH]c3ccc(N[C@H]4CCCc5cc(C#N)cnc54)cc23)sn1 (single isomer, unassigned) [Example 158, enantiomer 2, 8-((3-(3-Methylisothiazol-5-yl)-1H-indazol-5-yl)amino)-5,6,7,8-tetrahydroquinoline-3-carbonitrile]		< 100
Cc1ncc(-c2n[nH]c3ccc(N[C@H]4CCCc5cc(C#N)c(C)nc54)cc23)o1 (single isomer, unassigned) [Example 159, enantiomer 2, 2-Methyl-8-((3-(2-methyloxazol-5-yl)-1H-indazol-5-yl)amino)-5,6,7,8-tetrahydroquinoline-3-carbonitrile]		< 100
Cc1ncc(-c2n[nH]c3ccc(O[C@H]4CCc5cc(C#N)c(F)cc54)cc23)o1 (single isomer, unassigned) [Example 160, enantiomer 2, 6-Fluoro-1-((3-(2-methyloxazol-5-yl)-1H-indazol-5-yl)oxy)-2,3-dihydro-1H-indene-5-carbonitrile]		< 100
N#Cc1cnc2c(n1)CCC[C@@H]2Oc1ccc2[nH]nc(-c3cnco3)c2c1 (single isomer, unassigned) [Example 163, enantiomer 2, 5-[[3-(1,3-Oxazol-5-yl)-1H-indazol-5-yl]oxy]-5,6,7,8-tetrahydroquinoxaline-2-carbonitrile]		< 100
Cc1nc2c(c(C)c1C#N)CCC[C@@H]2Nc1ccc2[nH]nc(-c3cnco3)c2c1 (single isomer, unassigned) [Example 164, enantiomer 2, 2,4-Dimethyl-8-[[3-(1,3-oxazol-5-yl)-1H-indazol-5-yl]amino]-5,6,7,8-tetrahydroquinoline-3-carbonitrile]		< 100
COc1nc2c(c(C)c1C#N)CCC[C@@H]2Nc1ccc2[nH]nc(-c3cnco3)c2c1 (single isomer, unassigned) [Example 165, enantiomer 2, 2-Methoxy-4-methyl-8-[[3-(1,3-oxazol-5-yl)-1H-indazol-5-yl]amino]-5,6,7,8-tetrahydroquinoline-3-carbonitrile]		< 100
Cc1c(C#N)c(Cl)nc2c1CC[C@@H]2Oc1ccc2[nH]nc(-c3cnco3)c2c1 (single isomer, unassigned) [Example 166, enantiomer 2, 2-Chloro-4-methyl-7-[[3-(1,3-oxazol-5-yl)-1H-indazol-5-yl]oxy]-6,7-dihydro-5H-cyclopenta[b]pyridine-3-carbonitrile]		< 100
N#Cc1c(F)cc2c(c1F)CC[C@@H]2Oc1ccc2[nH]nc(-c3cnco3)c2c1 (single isomer, unassigned) [Example 167, enantiomer 2, 4,6-Difluoro-1-[[3-(1,3-oxazol-5-yl)-1H-indazol-5-yl]oxy]-2,3-dihydro-1H-indene-5-carbonitrile]		< 100
N#Cc1cc2c(nc1Cl)[C@@H](Oc1ccc3[nH]nc(-c4cnco4)c3c1)CC2 (single isomer, unassigned) [Example 171, enantiomer 2, 2-Chloro-7-[[3-(1,3-oxazol-5-yl)-1H-indazol-5-yl]oxy]-6,7-dihydro-5H-cyclopenta[b]pyridine-3-carbonitrile]		< 100
